Data published in patent US10942183B2, “Methods of detecting progesterone receptor and of detecting an expression level” (REGENTS OF THE UNIVERSITY OF MINNESOTA, priority 2017, dated 2021).

Experiments:
[1] = test system: PR Ser294 phosphorylation; test: PR Ser294 phosphorylation in T47D cells (Western blotting, immunofluorescence); assay type: cell-based, human; conditions: T47D cells expressing WT or KR PR; for PR Ser294 phosphorylation, ligand alone: 1 hour; for PR Ser294 phosphorylation in the presence of progesterone (co-treatment): progesterone plus antiprogestin
Experimental: T47D human breast cancer cell lines engineered to stably express PR variants (null, WT, K388R, or S294A) were previously described (Knutson et al. Breast Cancer Res 2012, 14:R9). T47D cells were maintained in complete minimal essential medium (cMEM) supplemented with 5% fetal bovine serum (FBS), 1% non-essential amino acids (NEAA), 1% penicillin/streptomycin, 6 ng/ml insulin (CellGro, Manassas, Va., USA, catalog #10-010-CV). T47D cells described above were engineered to also stably express RUNX2 shRNAs via the pLKO.1 knockdown expression vector system, which required 25 μg/ml puromycin for the vector. In various experiments, cells or explants were treated with E2, ICI 182 780, R5020, mifepristone, aglepristone, or onapristone (Arno Therapeutics, Inc., Flemington, N.J.).
Immunocytochemistry was performed on T47D cells expressing PR variants to measure total- and phospho-Ser294 PR levels. 500,000 cells were grown on coverslips in 6-well plates, starved in IMEM plus 5% charcoal stripped FBS, treated, and fixed with 4% paraformaldehyde for 20 min. The cells were permeabilized with 0.3% Triton-X100 before incubating with total-PR (clone Ab8, ThermoFisher Scientific, Waltham, Mass.) or custom phospho-Ser294-PR (clone 8508) antibodies. Cells were incubated with fluorescent secondary antibodies (Alexa Fluor 488) and DAPI mounting medium (Life Technologies, ThermoFisher Scientific, Waltham, Mass.) before visualizing on a Zeiss microscope with A4 and L5 filter cubes. Immunoblotting was performed as previously described (Daniel et al. Mol Endocrinol 2007, 21:2890-2906).
In addition, extensive luminal breast cancer heterogeneity may limit the ability to observe a subset of PR-driven breast cancers without patient selection. In this case, PR target gene expression may provide an accurate means of predicting which breast tumors are likely to be influenced by PR-driven biological pathways enacted by active phospho-Ser294 PRs. To probe changes in PR target gene expression in the presence or absence of commonly used PR ligands (R5020, RU486), including diverse antiprogestins (aglepristone, onapristone) currently in development for clinical use, the well characterized model system of T47D breast cancer cells, stably expressing either unmodified wild-type (WT) PR-B or a transcriptionally hyperactive form of deSUMOylated K388R PR-B (KR; this receptor faithfully mimics phosphorylated PR-B with regard to target gene selection) were used (Knutson et al. Pharmacology & therapeutics 2014, 142:114-125; Daniel et al. Mol Endocrinol 2007, 21:2890-2906). Whether the antiprogestins mifepristone (also called RU486), aglepristone, or onapristone alter PR Ser294 phosphorylation were tested in these T47D breast cancer models. Cells were treated for 1 hour with vehicle, progesterone, mifepristone, aglepristone, or onapristone and whole cell lysates were processed for Western blotting or immunofluorescence (IF) analysis (FIG. 4A, B). […] Greater loss of total KR PR protein was also apparent in the presence of progesterone and selected antiprogestins relative to liganded WT PR, consistent with increased turnover of deSUMOylated active receptors relative to intact WT PRs.

[2] = test system: PR target gene expression; test: Global gene expression analysis (Illumina HT-12v4) in T47D cells expressing WT or K388R PR-B; assay type: cell-based, human; conditions: for regulation of PR target genes in cells expressing KR PR: T47D KR PR
Experimental: For genome-wide microarray expression analysis, T47D cells expressing pIRES-neo3 empty vector, WT PR, or K388R PR were serum starved in modified improved minimum essential media (IMEM) (Gibco, ThermoFisher Scientific, Waltham, Mass.) for one day before treatment. Eight groups were treated with vehicle control, progesterone (10^−8 M), mifepristone (10^−7 M), aglepristone (10^−7 M), onapristone (10^−7 M), or combined treatment of progesterone+mifepristone, progesterone+aglepristone, or progesterone+onapristone for six hours before RNA extraction using a RNeasy kit (QIAgen). DNase I treated (QIAgen) RNA samples from triplicate experiments were prepared for expression analysis using the Illumina HT-12v4 bead chip platform according to standard protocols. Raw data from agonist-treated cells (progesterone or R5020) collected from two identically performed independent experiments (from this study and a previous study: GSE34148 (Knutson et al. Breast Cancer Res 2012, 14:R95)) was combined, normalized, and batch-corrected to ensure that gene expression values were informative across samples from separate experiments. Data were analyzed within multiple common R (R Core Team: R: A language and environment for statistical computing. R Foundation for Statistical Computing, Vienna, Austria 2015, [available on the world wide web at r-project.org/]) and Bioconductor (Gentleman et al. Genome Biol 2004, 5:R80) packages. Raw intensities were log 2 transformed and quantile normalized using lumi (Du et al. Bioinformatics 2008, 24:1547-1548), batch corrected using sva (Leek et al.: sva: Surrogate Variable Analysis. R package version 3.18.0.), and multiple probes for a single gene were collapsed using genefilter (Gentleman et al.: genefilter: genefilter: methods for filtering genes from high-throughput experiments. R package version 1.52.1). Differentially expressed genes (pairwise comparisons between all eight groups) were analyzed in limma (Smyth: Limma: linear models for microarray data. In: Bioinformatics and computational biology solutions using R and Bioconductor. edn.: Springer; 2005: 397-420), where empirical Bayes was used to better estimate the variance of the genes. Biological comparisons (for example, R5020/vehicle) were presented as log 2 fold change including the Benjamini and Hochberg (BH) adjusted P value (Benjamini et al. J Roy Stat Soc B Met 1995, 57:289-300) to account for multiple hypothesis testing. Expression data is available in the GEO database, accession: GSE94363.
Normalized gene expression data were filtered to isolate only high variance genes using the bioconductor package genefilter (Gentleman et al.: genefilter: genefilter: methods for filtering genes from high-throughput experiments. In., R package version 1.50.0 edn: R package version 1.50.0) using interquartile range cutoff value of 0.85. Non-negative matrix factorization (NMF) was performed within R using the NMF package version 0.20.5 (Gaujoux et al. BMC bioinformatics 2010, 11:367) where matrix factors were rank (2-10) and algorithm (brunet or snmf/r) optimized using the nmf function with parameters nrun=30 and seed=123456. […] Clustering and plots were performed in R (NMF package, a heat map function) using Euclidean distance and UPGMA (average) linkage.
PR ligand-mediated promoter selectivity remains understudied, especially in the context of antiprogestins and posttranslationally modified PR species. […]

| Structure (SMILES) | PR Ser294 phosphorylation, ligand alone [1] | PR Ser294 phosphorylation in the presence of progesterone (co-treatment) [1] | regulation of PR target genes in cells expressing KR PR ([2]; antiprogestin 10^-7 M, 6 hours) | regulation of PR target genes in cells expressing WT PR ([2]; T47D WT PR, antiprogestin 10^-7 M, 6 hours) | PR transcriptional activity (hierarchical clustering of regulated genes) ([2]; T47D WT or KR PR, compared with PR-null cells) |
| --- | --- | --- | --- | --- | --- |
| CC#C[C@]1(O)CC[C@H]2[C@@H]3CCC4=CC(=O)CCC4=C3[C@@H](c3ccc(N(C)C)cc3)C[C@@]21C [mifepristone] | stimulated robust PR Ser294 phosphorylation | also induced Ser294 phosphorylation | substantially regulate multiple genes in cells expressing KR PR | – | – |
| CN(C)c1ccc([C@H]2C[C@]3(C)[C@@H](CC[C@]3(O)CCCO)[C@@H]3CCC4=CC(=O)CCC4=C32)cc1 [onapristone] | had no effect on PR Ser294 phosphorylation | blocked Ser294 phosphorylation in the presence of progesterone | does not substantially regulate PR target genes in either cell line | does not substantially regulate PR target genes in either cell line | effectively inhibited PR (either WT or KR) transcriptional activity comparable to the level found in PR-null (control) cells |
| CC(=O)[C@H]1CC[C@H]2[C@@H]3CCC4=CC(=O)CC[C@]4(C)[C@H]3CC[C@]12C [progesterone] | stimulated PR Ser294 phosphorylation | – | – | – | – |
